According to US20240116921A1, “LACTAM (HETERO)[…] DERIVATIVES AS INHIBITORS OF ERBB2” (EnLiven Therapeutics, Inc., priority 2020, published 2024):
pIC50: −log10 of the molar value.

Experiments:
Ba/F3 ERBB2-L755S = Ba/F3 ERBB2-L755S (Homo sapiens, UniProt P04626, L755S, cells depend on it); assay: Cell viability assay, Ba/F3 ERBB2-L755S; assay type: cell-based, mouse; settings: 72 hours, CellTiter Glo, read-out: IC50, cell viability, Ba/F3 ERBB2-L755S
Description: (§1) Cells were treated with compounds, and cell viability was measured as a metric of kinase inhibition.
(§2) The Ba/F3 cell line is IL-3-dependent mouse cell line derived from the C3H mouse strain. Ba/F3 cell lines were engineered to express human ERBB2 or EGFR kinases, rendering the cells IL-3 independent. The lines were generated via retroviral transduction utilizing a Moloney murine leukemia virus (MMLV) promoter, and constructs are stably integrated into the cell genome. The sequences of the ERBB2 and EGFR genes used were NCBI Reference Sequences NM_004448.3 and NM_005228.3, respectively.
(§3) Similarly, Ba/F3 cell lines engineered to express EGFR, ERBB2, or ERBB2 mutants were grown, harvested, counted and seeded at 3000 cells per well in 96-well plates. A subset of wells contained media only (low control, “LC”).
(§4) Table B1 provides the growth media and number of cells seeded per well for the each cell line.
(§5) Plates were placed in a 37° C., 5% CO2 incubator for 72 hours. Plates were then removed from the incubator and equilibrated for 15 minutes at room temperature. 40 μl of CellTiter Glo reagent (Promega) was added to measure the relative level of metabolically active cells by quantifying intracellular ATP concentrations. Plates were incubated for 30 minutes at room temperature, and luminescence was measured. Percent viability was normalized to a vehicle control only using the following formula: % viability=100×(Lumsample−LumLC)/(LumHC−Lum^LC). Graphical curves were fitted using a nonlinear regression model with a sigmoidal dose response.

Ba/F3 ERBB2-G776VC = Ba/F3 ERBB2-G776VC (Homo sapiens, UniProt P04626, DELINS776-776VC, cells depend on it); assay: Cell viability assay, Ba/F3 ERBB2-G776VC; assay type: cell-based, mouse; settings: 72 hours, CellTiter Glo, read-out: IC50, cell viability, Ba/F3 ERBB2-G776VC
Description: as §1, §2, §3, §4, §5

Ba/F3 ERBB2 wt = Ba/F3 ERBB2 wt (Homo sapiens, UniProt P04626); assay: Cell viability assay, Ba/F3 ERBB2 wt; assay type: cell-based, mouse; settings: Ba/F3 ERBB2 wt cells, 72 hours, CellTiter Glo; read-out: IC50, cell viability, Ba/F3 ERBB2 wt
Description: as §1, §2, §3, §4, §5

Ba/F3 ERBB2-T798M = Ba/F3 ERBB2-T798M (Homo sapiens, UniProt P04626, T798M, cells depend on it); assay: Cell viability assay, Ba/F3 ERBB2-T798M; assay type: cell-based, mouse; settings: 72 hours, CellTiter Glo, read-out: IC50, cell viability, Ba/F3 ERBB2-T798M
Description: as §1, §2, §3, §4, §5

[1] = molecular target: Ba/F3 ERBB2 A775_G776insYVMA (Homo sapiens, UniProt P04626, DUP772-775, cells depend on it); assay: Cell viability assay, Ba/F3 ERBB2 A775_G776insYVMA; assay type: cell-based, mouse; settings: Ba/F3 ERBB2 A775_G776insYVMA cells, 72 hours, CellTiter Glo; Tables B2-B4; read-out: IC50, cell viability, Ba/F3 ERBB2 A775_G776insYVMA
Outline: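 IL-3-independent Ba/F3 lines stably expressing the human ERBB2 insertion mutants were seeded at 3000 cells/well and exposed to compounds for 72 h at 37 °C, 5% CO2. Viability was read as ATP by CellTiter-Glo luminescence. Curves were fitted by sigmoidal nonlinear regression.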

BT-474 = assay: Cell viability assay (CellTiter Glo), BT-474; assay type: cell-based; settings: Homo sapiens; BT-474 cells, 72 hours, CellTiter Glo; read-out: IC50, cell viability, BT-474
[2] = molecular target: T1, phosphorylated ERBB2 (pERBB2) (Homo sapiens, UniProt P04626); assay: Detection of phosphorylated ERBB2 (pERBB2) by ELISA in BT-474 cells; assay type: cell-based; settings: four hours incubation
T1 construct: endogenous in cells; host or cells: BT-474
Outline: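 BT-474 cells (2.0×10^4/well) treated 4 h at 37 °C, 5% CO2 with compounds in four-fold dilutions from 10 µM to 0.01 nM. Lysate pERBB2 measured by ELISA with TMB read at 450 nm; % relative activity scaled between no-cell wells and 0.1% DMSO-treated cells.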

[3] = molecular target: Ba/F3 ERBB2-V777_G778insGC (Homo sapiens, UniProt P04626, INS778CG, cells depend on it); assay: Cell viability assay, Ba/F3 ERBB2-V777_G778insGC; assay type: cell-based, mouse; settings: 72 hours, CellTiter Glo, read-out: IC50, cell viability, Ba/F3 ERBB2-V777_G778insGC
Description: as §1, §2, §3, §4, §5

Ba/F3 ERBB2 wt, sequence (P04626 whole entry, change not shown): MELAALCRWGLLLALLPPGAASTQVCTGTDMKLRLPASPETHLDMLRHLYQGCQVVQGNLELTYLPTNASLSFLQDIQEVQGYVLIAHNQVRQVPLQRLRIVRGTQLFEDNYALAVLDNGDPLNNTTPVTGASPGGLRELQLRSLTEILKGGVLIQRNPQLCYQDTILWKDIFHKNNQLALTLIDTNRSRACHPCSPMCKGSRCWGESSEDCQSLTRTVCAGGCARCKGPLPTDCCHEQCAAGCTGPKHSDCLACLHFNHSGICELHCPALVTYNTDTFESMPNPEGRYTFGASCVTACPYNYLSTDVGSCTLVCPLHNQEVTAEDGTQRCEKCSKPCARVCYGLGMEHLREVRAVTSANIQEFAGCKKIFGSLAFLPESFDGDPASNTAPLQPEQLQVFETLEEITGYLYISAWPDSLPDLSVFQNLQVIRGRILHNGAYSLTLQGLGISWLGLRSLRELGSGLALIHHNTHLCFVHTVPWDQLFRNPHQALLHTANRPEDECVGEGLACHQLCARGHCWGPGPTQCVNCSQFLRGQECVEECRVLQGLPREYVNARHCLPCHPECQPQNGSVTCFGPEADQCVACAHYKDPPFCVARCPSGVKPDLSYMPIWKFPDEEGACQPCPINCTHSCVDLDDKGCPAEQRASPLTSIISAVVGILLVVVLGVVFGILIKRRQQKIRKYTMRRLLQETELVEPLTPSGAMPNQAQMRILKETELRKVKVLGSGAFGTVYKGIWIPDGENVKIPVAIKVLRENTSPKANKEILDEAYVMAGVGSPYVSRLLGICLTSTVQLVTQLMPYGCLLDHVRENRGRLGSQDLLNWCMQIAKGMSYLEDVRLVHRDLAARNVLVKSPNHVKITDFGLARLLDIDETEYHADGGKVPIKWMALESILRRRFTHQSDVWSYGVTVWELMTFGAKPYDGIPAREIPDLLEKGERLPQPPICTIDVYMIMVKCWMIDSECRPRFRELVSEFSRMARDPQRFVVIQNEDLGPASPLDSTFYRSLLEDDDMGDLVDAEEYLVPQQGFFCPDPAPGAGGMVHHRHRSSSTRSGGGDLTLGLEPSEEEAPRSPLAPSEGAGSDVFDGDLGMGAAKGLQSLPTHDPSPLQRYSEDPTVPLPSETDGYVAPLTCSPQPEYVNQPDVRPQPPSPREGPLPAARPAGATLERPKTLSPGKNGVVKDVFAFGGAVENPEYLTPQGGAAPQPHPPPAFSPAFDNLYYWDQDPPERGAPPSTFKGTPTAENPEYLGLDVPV
Ba/F3 ERBB2-V777_G778insGC, sequence (P04626 with tags, fused parts or gaps INS778CG): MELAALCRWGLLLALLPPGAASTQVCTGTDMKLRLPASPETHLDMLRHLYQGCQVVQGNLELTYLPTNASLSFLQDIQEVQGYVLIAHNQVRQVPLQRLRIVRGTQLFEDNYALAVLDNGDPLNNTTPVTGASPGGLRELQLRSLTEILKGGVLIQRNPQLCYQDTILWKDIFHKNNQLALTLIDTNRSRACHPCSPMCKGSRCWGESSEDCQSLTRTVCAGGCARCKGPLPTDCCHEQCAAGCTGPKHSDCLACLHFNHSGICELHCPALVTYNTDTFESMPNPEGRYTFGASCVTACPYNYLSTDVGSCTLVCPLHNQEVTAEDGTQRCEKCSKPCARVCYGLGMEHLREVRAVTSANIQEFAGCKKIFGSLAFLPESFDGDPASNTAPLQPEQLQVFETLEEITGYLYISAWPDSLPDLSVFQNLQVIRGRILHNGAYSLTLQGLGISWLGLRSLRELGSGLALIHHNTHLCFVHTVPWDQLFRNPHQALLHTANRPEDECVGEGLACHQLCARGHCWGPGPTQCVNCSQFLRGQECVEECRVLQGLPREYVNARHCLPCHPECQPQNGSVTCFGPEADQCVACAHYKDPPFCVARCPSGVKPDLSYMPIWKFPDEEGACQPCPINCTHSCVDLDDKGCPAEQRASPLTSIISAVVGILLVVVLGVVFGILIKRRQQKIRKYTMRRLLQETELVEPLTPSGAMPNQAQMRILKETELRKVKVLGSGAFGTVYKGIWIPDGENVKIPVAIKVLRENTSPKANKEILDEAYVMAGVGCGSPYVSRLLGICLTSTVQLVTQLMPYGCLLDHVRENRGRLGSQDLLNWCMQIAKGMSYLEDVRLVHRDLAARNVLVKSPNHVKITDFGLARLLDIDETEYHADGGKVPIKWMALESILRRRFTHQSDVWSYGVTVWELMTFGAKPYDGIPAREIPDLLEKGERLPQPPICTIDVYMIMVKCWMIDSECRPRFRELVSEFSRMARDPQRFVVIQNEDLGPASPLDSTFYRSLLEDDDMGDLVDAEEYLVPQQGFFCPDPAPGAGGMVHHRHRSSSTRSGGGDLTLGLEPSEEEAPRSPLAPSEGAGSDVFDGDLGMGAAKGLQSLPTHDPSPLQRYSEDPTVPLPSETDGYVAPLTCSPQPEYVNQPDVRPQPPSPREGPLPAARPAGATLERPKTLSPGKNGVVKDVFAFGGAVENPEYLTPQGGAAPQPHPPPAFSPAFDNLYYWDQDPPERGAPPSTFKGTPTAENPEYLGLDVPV
Ba/F3 ERBB2-T798M, sequence (P04626 whole entry T798M): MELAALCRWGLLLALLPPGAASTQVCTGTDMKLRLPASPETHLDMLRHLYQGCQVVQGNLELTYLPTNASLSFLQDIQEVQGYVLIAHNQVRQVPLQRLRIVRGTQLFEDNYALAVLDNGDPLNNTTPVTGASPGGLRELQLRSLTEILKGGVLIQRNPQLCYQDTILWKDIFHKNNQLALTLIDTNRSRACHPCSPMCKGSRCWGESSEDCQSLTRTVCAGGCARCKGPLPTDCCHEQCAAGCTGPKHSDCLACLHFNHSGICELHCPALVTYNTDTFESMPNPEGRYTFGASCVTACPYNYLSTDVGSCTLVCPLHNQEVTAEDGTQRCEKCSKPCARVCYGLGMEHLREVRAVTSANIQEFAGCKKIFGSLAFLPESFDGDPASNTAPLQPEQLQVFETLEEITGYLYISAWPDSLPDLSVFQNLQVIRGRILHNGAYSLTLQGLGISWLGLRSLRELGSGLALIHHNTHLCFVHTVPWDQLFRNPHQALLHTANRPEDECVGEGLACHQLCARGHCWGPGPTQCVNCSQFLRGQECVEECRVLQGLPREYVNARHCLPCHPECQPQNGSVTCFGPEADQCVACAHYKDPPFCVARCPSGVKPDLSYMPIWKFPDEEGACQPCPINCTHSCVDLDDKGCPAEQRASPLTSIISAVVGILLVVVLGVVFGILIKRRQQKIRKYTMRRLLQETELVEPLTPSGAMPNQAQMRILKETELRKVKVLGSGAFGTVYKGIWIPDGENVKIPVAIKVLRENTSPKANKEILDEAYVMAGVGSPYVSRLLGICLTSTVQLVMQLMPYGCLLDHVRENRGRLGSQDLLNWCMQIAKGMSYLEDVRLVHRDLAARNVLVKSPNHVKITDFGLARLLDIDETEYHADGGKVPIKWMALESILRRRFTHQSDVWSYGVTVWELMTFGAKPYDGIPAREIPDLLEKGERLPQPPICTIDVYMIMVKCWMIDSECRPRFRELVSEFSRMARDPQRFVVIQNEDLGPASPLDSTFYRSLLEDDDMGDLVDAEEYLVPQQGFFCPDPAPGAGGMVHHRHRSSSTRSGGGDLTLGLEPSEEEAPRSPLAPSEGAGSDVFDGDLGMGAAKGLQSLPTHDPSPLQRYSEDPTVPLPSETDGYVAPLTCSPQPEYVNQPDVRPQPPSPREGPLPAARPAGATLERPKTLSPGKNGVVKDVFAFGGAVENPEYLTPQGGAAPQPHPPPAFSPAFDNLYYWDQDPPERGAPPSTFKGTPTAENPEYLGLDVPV
Ba/F3 ERBB2-L755S, sequence (P04626 whole entry L755S): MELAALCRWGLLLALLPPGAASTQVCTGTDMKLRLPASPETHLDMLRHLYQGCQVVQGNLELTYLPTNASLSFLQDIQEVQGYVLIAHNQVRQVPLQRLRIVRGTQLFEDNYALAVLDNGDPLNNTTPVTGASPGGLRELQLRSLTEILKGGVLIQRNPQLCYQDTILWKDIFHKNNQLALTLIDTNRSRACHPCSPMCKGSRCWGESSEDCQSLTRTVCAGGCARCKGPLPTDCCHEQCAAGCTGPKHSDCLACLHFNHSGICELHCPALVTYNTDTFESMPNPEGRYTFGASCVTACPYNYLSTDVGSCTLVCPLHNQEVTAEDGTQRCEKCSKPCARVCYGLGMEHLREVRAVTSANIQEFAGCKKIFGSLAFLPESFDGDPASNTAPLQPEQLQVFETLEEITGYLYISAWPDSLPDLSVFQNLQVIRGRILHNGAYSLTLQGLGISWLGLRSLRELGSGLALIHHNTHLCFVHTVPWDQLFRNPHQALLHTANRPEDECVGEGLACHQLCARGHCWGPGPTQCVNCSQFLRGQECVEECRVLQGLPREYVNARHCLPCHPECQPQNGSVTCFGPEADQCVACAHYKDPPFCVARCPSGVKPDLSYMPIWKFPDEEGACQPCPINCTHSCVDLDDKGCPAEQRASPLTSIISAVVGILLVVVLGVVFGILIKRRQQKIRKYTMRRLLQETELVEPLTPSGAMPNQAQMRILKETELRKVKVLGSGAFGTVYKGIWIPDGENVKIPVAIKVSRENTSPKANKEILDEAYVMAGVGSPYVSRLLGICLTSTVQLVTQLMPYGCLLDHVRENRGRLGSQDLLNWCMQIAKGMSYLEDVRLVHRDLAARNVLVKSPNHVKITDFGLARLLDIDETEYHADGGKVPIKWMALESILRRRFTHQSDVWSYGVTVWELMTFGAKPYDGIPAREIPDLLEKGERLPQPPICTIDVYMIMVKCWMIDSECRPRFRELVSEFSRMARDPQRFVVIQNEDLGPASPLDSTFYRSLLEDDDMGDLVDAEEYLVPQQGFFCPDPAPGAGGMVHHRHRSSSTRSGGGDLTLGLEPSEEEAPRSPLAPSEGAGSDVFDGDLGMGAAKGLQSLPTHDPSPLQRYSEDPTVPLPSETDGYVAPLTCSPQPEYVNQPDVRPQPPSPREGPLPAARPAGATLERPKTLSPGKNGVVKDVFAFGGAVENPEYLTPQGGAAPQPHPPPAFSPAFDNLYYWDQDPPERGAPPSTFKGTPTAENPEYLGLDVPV

Row | pIC50 (BT-474) | pIC50 [2] | Compound | GI50 (Ba/F3 ERBB2-L755S) | GI50 (Ba/F3 ERBB2-G776VC) | GI50 (Ba/F3 ERBB2 wt) | GI50 (Ba/F3 ERBB2-T798M) | GI50 [1] | GI50 [3]
1 | 8.13 | 8.10 | C=C1CCN(c2ccc3ncnc(Nc4ccc(Oc5ccn6ncnc6c5)c(C)c4)c3c2)C1=O [Compound 1, 1-[4-[(3-methyl-4-[[1,2,4]triazolo[1,5-a]pyridin-7-yloxy]phenyl)amino]quinazolin-6-yl]-3-methylidenepyrrolidin-2-one] | 13 nM | 16 nM | 2.3 nM | 151 nM | 28 nM | 0.82 nM
2 | 7.79 | 8.29 | C=C1CCN(c2ccc3ncnc(Nc4ccc(Oc5ccn6ccnc6c5)c(C)c4)c3c2)C1=O [Compound 4, 1-[4-[(4-[imidazo[1,2-a]pyridin-7-yloxy]-3-methylphenyl)amino]quinazolin-6-yl]-3-methylidenepyrrolidin-2-one] | 14 nM | 7.5 nM | 3.9 nM | 154 nM | 16 nM | 1.8 nM
